This assay addresses T1, Tyrosine-protein phosphatase non-receptor type 1 (Homo sapiens, UniProt P18031).
T1 sequence (P18031 whole entry): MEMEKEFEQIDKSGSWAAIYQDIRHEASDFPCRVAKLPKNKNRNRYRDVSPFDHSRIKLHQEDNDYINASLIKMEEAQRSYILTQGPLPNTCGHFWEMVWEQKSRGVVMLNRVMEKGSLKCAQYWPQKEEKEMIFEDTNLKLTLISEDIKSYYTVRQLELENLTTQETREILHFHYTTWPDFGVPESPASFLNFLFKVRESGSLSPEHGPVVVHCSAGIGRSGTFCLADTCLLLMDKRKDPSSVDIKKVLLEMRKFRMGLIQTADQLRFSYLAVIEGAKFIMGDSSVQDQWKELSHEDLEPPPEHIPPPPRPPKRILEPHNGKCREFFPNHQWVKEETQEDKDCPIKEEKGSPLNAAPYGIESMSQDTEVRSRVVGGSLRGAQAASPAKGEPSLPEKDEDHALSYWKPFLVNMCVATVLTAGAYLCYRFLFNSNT
In words: Inhibition of PTP1B by pNPP hydrolase assay.

Among the data in ChEMBL document CHEMBL1152998, “Structure-based virtual screening approach to identify novel classes of PTP1B inhibitors” (Eur J Med Chem, 2009) are IC50 values, retold here.

As for `O=C(O)c1cc(-c2ccc(/C=C3\NC(=O)N(c4ccccc4)C3=O)o2)ccc1Cl`, the IC50 (in general, the midpoint of a concentration-inhibition curve) was found to be 34 µM. This lies in the double-digit micromolar range.
The result for `O=C(O)c1ccc(Nc2cc3ccccc3cc2NS(=O)(=O)c2ccc(F)cc2)cc1` reads 41 µM; that for `N#C/C(=C\c1ccc(-c2ccccc2C(=O)O)o1)C(=O)Nc1ccc2ccccc2c1`, 27 µM.
The result for `O=C(O)c1cccc(-c2ccc(-c3nc4sc5c(c4c(=O)[nH]3)CCCC5)o2)c1` reads 25 µM.
The result for `O=C1NC(=O)/C(=C\c2ccc(OCc3ccc(F)cc3)c(Br)c2)S1` reads 11 µM; that for `O=C1ON=C(c2ccccc2)/C1=C\c1ccccc1OCc1ccccc1Cl`, 22 µM; that for `CCOc1ccc(-c2csc(C(C#N)CNc3ccc4oc(=O)ccc4c3)n2)cc1` (centres undefined), 28 µM.
Take `O=C1NC(=O)N(c2ccccc2)C(=O)/C1=C\c1cn(Cc2cccc3ccccc23)c2ccccc12`: the IC50 is 12 µM.
The result for `COc1cc(C)ccc1OCCn1cccc1/C=C1\C(=O)NC(=O)N(c2ccc(C)c(Cl)c2)C1=O` reads 35 µM.
